Consider 7 compounds from PMC5398096 (Bioorganic & medicinal chemistry letters, 2017).

The test system of one data set is COLO-205 xenograft. The conditions noted are these: COLO-205 xenograft mouse model, cited from earlier work.
Another data set deals with T1, human DHFR (Homo sapiens, UniProt P00374).
T1 sequence (P00374 1-187): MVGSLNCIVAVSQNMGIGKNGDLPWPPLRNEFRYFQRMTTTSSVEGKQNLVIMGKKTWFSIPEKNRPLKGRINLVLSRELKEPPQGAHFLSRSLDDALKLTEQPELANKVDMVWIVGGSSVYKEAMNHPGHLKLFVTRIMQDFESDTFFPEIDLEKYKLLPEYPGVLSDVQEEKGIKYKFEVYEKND
The conditions noted are these: number in parentheses; at the concentration stated in the same cell (μM); cited from earlier work.

Data set [1] deals with A431 cancer cells. The conditions noted are these: read-out: A431 Cytotoxicity IC50; previously evaluated lead compounds; cited from earlier work.
Data set [2] has as its target T2, E. coli DHFR (Escherichia coli, UniProt P0ABQ4). The conditions noted are these: number in parentheses; at the concentration stated in the same cell (μM); cited from earlier work.
The target of a further data set is E. coli TS (Escherichia coli, UniProt P0A884). The experiment in a line: Thymidylate synthase. It is filed as biochemical. Particulars: number in parentheses; at the concentration stated in the same cell (μM).
Sequence of E. coli TS (P0A884 whole entry): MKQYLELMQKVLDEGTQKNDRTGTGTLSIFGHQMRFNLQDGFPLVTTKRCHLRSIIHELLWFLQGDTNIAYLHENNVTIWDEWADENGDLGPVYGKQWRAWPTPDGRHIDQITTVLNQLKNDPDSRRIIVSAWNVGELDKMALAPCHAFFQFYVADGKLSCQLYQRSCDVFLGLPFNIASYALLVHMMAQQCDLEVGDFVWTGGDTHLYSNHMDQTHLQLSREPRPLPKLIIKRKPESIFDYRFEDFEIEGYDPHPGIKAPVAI
The target in another data set is EGFR (Homo sapiens, UniProt P00533). Briefly: EGFR kinase inhibition, phosphotyrosine ELISA in whole cells. The format is cell-based. The conditions noted are these: relative to standard 24. (An ELISA detects its analyte on a solid surface through an enzyme-linked reagent.)
Sequence of EGFR (P00533 25-1210): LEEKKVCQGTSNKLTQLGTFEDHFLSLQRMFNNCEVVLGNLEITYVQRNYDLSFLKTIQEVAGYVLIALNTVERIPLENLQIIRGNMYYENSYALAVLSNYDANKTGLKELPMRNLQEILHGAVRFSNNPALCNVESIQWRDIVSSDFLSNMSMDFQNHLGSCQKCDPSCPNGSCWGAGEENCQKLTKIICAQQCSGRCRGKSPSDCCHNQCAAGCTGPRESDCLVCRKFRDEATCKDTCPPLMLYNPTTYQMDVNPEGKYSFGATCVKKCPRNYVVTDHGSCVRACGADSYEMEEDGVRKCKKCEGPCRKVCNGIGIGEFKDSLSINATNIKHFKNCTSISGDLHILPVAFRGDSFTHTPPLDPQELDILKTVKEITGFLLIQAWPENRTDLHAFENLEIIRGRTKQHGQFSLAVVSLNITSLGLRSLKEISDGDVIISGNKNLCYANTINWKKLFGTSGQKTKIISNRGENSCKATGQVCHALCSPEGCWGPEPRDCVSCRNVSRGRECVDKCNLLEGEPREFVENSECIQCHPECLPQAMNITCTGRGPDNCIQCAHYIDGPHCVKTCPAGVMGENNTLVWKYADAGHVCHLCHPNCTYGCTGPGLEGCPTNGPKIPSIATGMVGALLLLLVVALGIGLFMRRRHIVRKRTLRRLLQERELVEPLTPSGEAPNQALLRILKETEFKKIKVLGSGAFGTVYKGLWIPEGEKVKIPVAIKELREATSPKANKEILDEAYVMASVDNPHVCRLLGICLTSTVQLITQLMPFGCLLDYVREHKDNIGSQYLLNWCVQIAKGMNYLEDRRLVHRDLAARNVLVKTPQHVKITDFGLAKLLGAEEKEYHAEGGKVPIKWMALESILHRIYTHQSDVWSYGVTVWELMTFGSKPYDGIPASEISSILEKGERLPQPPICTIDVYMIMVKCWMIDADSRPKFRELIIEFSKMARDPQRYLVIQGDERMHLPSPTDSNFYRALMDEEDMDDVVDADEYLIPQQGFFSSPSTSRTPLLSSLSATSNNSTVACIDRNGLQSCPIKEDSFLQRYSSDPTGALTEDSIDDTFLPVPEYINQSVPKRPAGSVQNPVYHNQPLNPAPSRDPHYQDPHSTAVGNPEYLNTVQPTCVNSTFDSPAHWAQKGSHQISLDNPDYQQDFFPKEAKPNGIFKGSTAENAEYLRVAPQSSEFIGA
The target of a further data set is PDGFR-β (Homo sapiens, UniProt P09619). Briefly: PDGFR-β kinase inhibition, phosphotyrosine ELISA in whole cells. The format is cell-based. Particulars: for PDGFR-β assay: fold less active than DMBI: relative to standard DMBI; for PDGFR-β assay: activity in words: even at 200 micromolar concentrations.
Sequence of PDGFR-β (P09619 33-1106): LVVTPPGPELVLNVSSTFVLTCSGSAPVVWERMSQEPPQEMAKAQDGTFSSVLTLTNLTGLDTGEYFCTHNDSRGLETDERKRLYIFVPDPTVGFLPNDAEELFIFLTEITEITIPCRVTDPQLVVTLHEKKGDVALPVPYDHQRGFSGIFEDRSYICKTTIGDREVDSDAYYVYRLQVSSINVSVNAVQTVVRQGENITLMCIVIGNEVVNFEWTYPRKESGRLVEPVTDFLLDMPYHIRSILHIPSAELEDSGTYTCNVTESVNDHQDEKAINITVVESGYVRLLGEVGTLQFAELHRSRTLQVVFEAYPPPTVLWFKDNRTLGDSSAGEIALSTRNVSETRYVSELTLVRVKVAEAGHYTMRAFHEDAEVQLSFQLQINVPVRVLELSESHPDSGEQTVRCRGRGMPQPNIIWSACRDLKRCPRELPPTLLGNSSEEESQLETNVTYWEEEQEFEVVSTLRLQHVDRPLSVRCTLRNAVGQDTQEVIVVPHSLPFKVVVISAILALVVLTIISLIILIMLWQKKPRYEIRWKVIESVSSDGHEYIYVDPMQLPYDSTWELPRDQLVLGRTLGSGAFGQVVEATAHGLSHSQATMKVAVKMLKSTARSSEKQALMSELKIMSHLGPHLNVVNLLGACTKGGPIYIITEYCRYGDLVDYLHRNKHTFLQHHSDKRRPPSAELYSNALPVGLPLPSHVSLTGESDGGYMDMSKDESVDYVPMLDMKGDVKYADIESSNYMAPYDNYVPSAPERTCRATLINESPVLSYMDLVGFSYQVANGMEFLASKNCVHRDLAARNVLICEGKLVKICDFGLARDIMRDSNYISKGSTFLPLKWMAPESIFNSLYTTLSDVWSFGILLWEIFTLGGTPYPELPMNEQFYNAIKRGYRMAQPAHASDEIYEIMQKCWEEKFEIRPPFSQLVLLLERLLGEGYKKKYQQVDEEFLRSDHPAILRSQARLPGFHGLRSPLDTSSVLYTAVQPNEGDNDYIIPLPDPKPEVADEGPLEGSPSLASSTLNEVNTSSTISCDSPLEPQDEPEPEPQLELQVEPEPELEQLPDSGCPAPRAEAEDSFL
Data set [3] has as its system A431 cancer cells. Briefly: A431 cytotoxicity. It is filed as cell-based, human. The conditions noted are these: for A431 cytotoxicity assay: fold less active than cisplatin: relative to standard cisplatin.
Another data set addresses VEGFR-2 (Flk-1) (Homo sapiens, UniProt P35968). Briefly: VEGFR-2 kinase inhibition, phosphotyrosine ELISA in whole cells. The conditions noted are these: for VEGFR-2 assay: fold less potent than semaxanib: relative to standard semaxanib. The format is cell-based.
The next data set has as its target human TS (Homo sapiens, UniProt P04818). Briefly: Thymidylate synthase. Particulars: relative to raltitrexed (RTX). The format is biochemical.
Data set [4] addresses T2, E. coli DHFR. The experiment in a line: Dihydrofolate reductase. It is filed as biochemical. Particulars: number in parentheses; at the concentration stated in the same cell (μM).

Like-named read-outs stand apart in the source and are kept apart here.

The IC50 is the concentration at which inhibition is half-maximal.

Sequence of VEGFR-2 (Flk-1) (P35968 20-1356): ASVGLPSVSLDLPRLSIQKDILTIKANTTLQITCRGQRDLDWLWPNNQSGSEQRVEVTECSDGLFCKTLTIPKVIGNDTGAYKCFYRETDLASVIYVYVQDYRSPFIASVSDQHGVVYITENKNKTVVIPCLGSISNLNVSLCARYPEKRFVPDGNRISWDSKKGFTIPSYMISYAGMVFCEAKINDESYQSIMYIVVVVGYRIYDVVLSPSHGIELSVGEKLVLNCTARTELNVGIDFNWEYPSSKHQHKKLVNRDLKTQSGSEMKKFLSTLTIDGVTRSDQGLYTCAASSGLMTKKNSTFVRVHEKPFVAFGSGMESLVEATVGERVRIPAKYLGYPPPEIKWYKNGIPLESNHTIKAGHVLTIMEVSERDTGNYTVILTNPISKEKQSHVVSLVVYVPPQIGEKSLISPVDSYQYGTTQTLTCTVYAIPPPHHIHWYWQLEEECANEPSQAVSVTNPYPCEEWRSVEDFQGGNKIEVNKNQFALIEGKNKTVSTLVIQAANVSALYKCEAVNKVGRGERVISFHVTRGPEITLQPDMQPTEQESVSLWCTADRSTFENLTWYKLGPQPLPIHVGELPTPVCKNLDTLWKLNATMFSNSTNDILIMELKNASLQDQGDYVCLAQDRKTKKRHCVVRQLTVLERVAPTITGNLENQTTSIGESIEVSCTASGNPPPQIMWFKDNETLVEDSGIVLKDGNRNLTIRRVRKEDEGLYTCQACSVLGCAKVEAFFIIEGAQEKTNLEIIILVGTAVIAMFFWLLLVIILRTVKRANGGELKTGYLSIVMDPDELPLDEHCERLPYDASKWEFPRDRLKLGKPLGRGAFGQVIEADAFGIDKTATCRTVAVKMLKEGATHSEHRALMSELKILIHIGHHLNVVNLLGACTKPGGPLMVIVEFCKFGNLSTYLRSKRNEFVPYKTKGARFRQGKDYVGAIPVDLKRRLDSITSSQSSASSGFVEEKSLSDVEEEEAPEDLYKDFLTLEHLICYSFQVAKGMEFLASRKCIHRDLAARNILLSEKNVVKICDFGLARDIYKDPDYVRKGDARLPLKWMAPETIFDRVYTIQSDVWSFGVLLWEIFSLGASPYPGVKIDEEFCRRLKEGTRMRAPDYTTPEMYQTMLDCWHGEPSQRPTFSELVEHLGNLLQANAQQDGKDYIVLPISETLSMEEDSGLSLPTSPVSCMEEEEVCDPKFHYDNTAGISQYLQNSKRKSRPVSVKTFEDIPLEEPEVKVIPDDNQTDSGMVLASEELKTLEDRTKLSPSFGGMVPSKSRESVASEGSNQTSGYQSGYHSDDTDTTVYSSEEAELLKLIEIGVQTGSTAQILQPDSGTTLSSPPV
T2 sequence (P0ABQ4 whole entry): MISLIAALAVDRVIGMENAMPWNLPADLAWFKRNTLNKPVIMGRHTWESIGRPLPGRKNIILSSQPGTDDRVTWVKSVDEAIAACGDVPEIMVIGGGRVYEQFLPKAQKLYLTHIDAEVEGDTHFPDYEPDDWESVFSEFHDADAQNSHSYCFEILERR
Sequence of human TS (P04818 whole entry): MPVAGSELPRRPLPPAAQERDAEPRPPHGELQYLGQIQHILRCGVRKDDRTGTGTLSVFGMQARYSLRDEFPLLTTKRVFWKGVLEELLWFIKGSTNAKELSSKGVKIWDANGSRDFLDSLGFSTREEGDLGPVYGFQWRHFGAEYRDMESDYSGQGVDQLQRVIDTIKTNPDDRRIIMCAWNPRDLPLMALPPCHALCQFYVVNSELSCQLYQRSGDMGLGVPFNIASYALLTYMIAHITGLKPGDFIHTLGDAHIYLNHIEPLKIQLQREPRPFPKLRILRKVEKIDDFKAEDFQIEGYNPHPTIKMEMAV

For the compound `Nc1nc(N)c2c(n1)[nH]c1cccc(Sc3ccccc3)c12` [Compound 1], in the data set with COLO-205 xenograft (35 mg/kg), the “tumor growth inhibition (TGI)” value was 76%. Besides, in the data set on COLO-205 xenograft (compared with DMBI and control), the liver metastases entry is listed as “significantly decreased” and the tumor blood vessels result is reported as “significantly decreased”. For the same compound, the “DHFR Human, percent inhibition at the stated concentration” value at human DHFR is reported as 17%. Further, the 50% inhibitory concentration (IC50) in the data set with A431 cancer cells [1] is 49.2 ± 4.7 µM. Besides, on E. coli DHFR [2], the “DHFR E. coli, percent inhibition at the stated concentration” value (from here on “DHFR E. coli, percent inhibition”) is reported as 35%.

On to `Cc1ccc(Sc2cccc3[nH]c4nc(N)nc(N)c4c23)cc1` [Compound 2], for which the “DHFR Human, percent inhibition at the stated concentration” value at human DHFR was 7%. The 50% inhibitory concentration (IC50) in the data set on A431 cancer cells [1] was 14.1 ± 2 µM. For the same compound, the “DHFR E. coli, percent inhibition” value at E. coli DHFR [2] is recorded as 27%.

Turning to `Nc1nc(N)c2c(n1)[nH]c1cccc(Sc3ccc4ccccc4c3)c12` [Compound 3], the “TS E. coli, percent inhibition at the stated concentration” value on E. coli TS is 0%. Further, on EGFR, the “EGFR assay: fold less active than standard 24” value is listed as 100 fold. Further, the “PDGFR-β assay: fold less active than DMBI” value at PDGFR-β came to 24 fold. The “A431 cytotoxicity assay: fold less active than cisplatin” value in the data set on A431 cancer cells [3] is listed as “about 4 fold”. On VEGFR-2 (Flk-1), the “VEGFR-2 assay: fold less potent than semaxanib” value worked out at 13 fold.

For `Nc1nc(N)c2c(n1)[nH]c1cccc(Sc3cccc4ccccc34)c12` [Compound 4], on EGFR, the “EGFR assay: fold less active than standard 24” value is 835 fold. In addition, the “PDGFR-β assay: fold less active than DMBI” value at PDGFR-β is “about 16 fold”. In addition, the “A431 cytotoxicity assay: activity in words” value in the data set on A431 cancer cells [3] (even at 200 micromolar concentration) is “inactive”. Besides, the “VEGFR-2 assay: fold less potent than semaxanib” value on VEGFR-2 (Flk-1) is given as 16 fold. The “hTS assay: fold less active than RTX” value at human TS turned out to be 6 fold.

Consider `COc1ccc(OC)c(Sc2cccc3[nH]c4nc(N)nc(N)c4c23)c1` [Compound 5], for which the “EGFR assay: fold less active than standard 24” value at EGFR was 22 fold. Moreover, at PDGFR-β, the “PDGFR-β assay: activity in words” value is “inactive”. In addition, in the data set with A431 cancer cells [3], the “A431 cytotoxicity assay: fold less active than cisplatin” value was “about 4 fold”. The “VEGFR-2 assay: fold less potent than semaxanib” value at VEGFR-2 (Flk-1) is recorded as “equipotent”. In addition, the “DHFR E. coli, percent inhibition” value on E. coli DHFR [4] was determined as 0%. Also, the “hTS assay: fold less active than RTX” value on human TS was determined as 3 fold.

Regarding `COc1ccc(Sc2cccc3[nH]c4nc(N)nc(N)c4c23)cc1` [Compound 6], on E. coli TS, the “TS E. coli, percent inhibition at the stated concentration” value was 0%. For the same compound, the “EGFR assay: fold less active than standard 24” value at EGFR is reported as “about 100 fold”. The “PDGFR-β assay: fold less active than DMBI” value at PDGFR-β is “about 16 fold”. In the data set on A431 cancer cells [3], the “A431 cytotoxicity assay: fold less active than cisplatin” value is “about 6 fold”. On VEGFR-2 (Flk-1), the “VEGFR-2 assay: fold less potent than semaxanib” value is given as 15 fold.

In the case of `Nc1nc(N)c2c(n1)[nH]c1cccc(Sc3ccc(Cl)cc3)c12` [Compound 7], at EGFR, the “EGFR assay: fold less active than standard 24” value is 40 fold. Moreover, at PDGFR-β, the “PDGFR-β assay: activity in words” value was “inactive”. Further, in the data set with A431 cancer cells [3], the “A431 cytotoxicity assay: fold less active than cisplatin” value is “equipotent”. In addition, the “VEGFR-2 assay: activity in words” value at VEGFR-2 (Flk-1) is “inactive”. The “DHFR E. coli, percent inhibition” value at E. coli DHFR [4] came to 0%. Also, on human TS, the “hTS assay: fold more potent than RTX” value was “equipotent”.
